Molecular target: T1, human skin chymase (Homo sapiens, UniProt P23946)
T1 construct: using human skin chymase (Cortex Biochem); purchased Cortex Biochem
T1 sequence (P23946 22-247): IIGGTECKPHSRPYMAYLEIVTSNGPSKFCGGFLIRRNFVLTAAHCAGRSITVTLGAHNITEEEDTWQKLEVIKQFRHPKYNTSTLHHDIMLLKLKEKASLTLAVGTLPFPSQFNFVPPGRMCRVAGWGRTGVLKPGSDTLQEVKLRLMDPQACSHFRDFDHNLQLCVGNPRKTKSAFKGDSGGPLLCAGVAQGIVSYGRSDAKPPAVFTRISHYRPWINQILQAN
Experiment: Enzyme-catalyzed hydrolysis assay (chymase inhibition)
Assay type: biochemical
Settings: 10 nM enzyme, 0.7 mM Suc-Ala-Ala-Pro-Phe-pNa, pH 8.0, 37° C., 30 minutes
Method: Enzyme-catalyzed hydrolysis rates were measured spectro-photometrically using human skin chymase (Cortex Biochem), a chromogenic substrate (Suc-Ala-Ala-Pro-Phe-pNa) (Bachem) in aqueous buffer (450 mM Tris, 1800 mM NaCl, pH 8.0), and a microplate reader (Molecular Devices). […] Percent inhibition was calculated by comparing the initial reaction slopes of the samples without inhibitor to those with inhibitor. IC50 values were determined using a four parameter fit logistics model. The term “NT” indicates a compound that was not tested.

| SMILES | IC50 |
| --- | --- |
| O=C(Nc1cc2ccccc2cc1C(=O)N1CCC(c2ccccc2)C1)C(c1cccc2ccccc12)P(=O)(O)O (centres unmarked) [Cpd 87] | 2.04 µM |
| O=C(Nc1ccc2ccccc2c1)C(c1nnn[nH]1)c1csc2ccc(Cl)cc12 (centres unmarked) [Cpd 88, 2-(5-Chloro-benzo[b]thiophen-3-yl)-n-naphthalen-2-yl-2-(1h-tetrazol-5-yl)-acetamide] | 2.04 ± 0.19 µM |
| CC1CCCC(NCc2cc3ccccc3cc2NC(=O)C(c2cccc3ccccc23)P(=O)(O)O)C1 (centres unmarked) [Cpd 90] | 2.15 µM |
| CN(C(=O)c1cc2ccccc2cc1NC(=O)C(c1cccc2ccccc12)P(=O)(O)O)C1CCCC1 (centres unmarked) [Cpd 91] | 2.32 µM |
| O=C(Nc1cc2ccccc2cc1C(=O)N1CCC(n2c(=O)[nH]c3ccccc32)CC1)C(c1cccc2ccccc12)P(=O)(O)O (centres unmarked) [Cpd 93] | 2.7 µM |
| O=C(Nc1ccccc1)OCc1cc2ccccc2cc1NC(=O)C(c1cccc2ccccc12)P(=O)(O)O (centres unmarked) [Cpd 94] | 2.75 µM |
| O=C(Nc1ccccc1)Oc1cc2ccccc2cc1NC(=O)C(c1cccc2ccccc12)P(=O)(O)O (centres unmarked) [Cpd 95, [Naphthalen-1-yl-(3-phenylcarbamoyloxy-naphthalen-2-yl-carbamoyl)-methyl]-phosphonic acid] | 2.8 µM |
| O=C(Nc1ccc2ccccc2n1)C(c1cccc2ccccc12)P(=O)(O)O (centres unmarked) [Cpd 96] | 2.8 µM |
| Cn1cc(C(C(=O)Nc2ccc3ccccc3c2)P(=O)(O)O)c2cc(-c3ccc(F)cc3)ccc21 (centres unmarked) [Cpd 98, [[5-(4-Fluoro-phenyl)-1-methyl-1H-indol-3-yl]-(naphthalen-2-ylcarbamoyl)-methyl]-phosphonic acid] | 2.9 µM |
| O=C(Nc1ccc2ccccc2c1)C(c1csc2cccc(Br)c12)P(=O)(O)O (centres unmarked) [Cpd 99] | 2.96 ± 1.18 µM |
| O=C(Nc1cc2ccccc2cc1C(=O)N1CCC(n2nnc3ccccc32)CC1)C(c1cccc2ccccc12)P(=O)(O)O (centres unmarked) [Cpd 100] | 3 ± 1.43 µM |
| O=C(Nc1cc2ccccc2cc1C(=O)N1CCC(c2ccccc2)CC1)C(c1cccc2ccccc12)P(=O)(O)O (centres unmarked) [Cpd 101] | 3.12 µM |
| CN(Cc1cc2ccccc2cc1NC(=O)C(c1cccc2ccccc12)P(=O)(O)O)C1CCN(C(=O)c2ccc3ccccc3c2)CC1 (centres unmarked) [Cpd 102, {[3-({Methyl-[1-(naphthalene-2-carbonyl)-piperidin-4-yl]-amino}-methyl)-naphthalen-2-ylcarbamoyl]-naphthalen-1-yl-methyl}-phosphonic acid] | 3.45 µM |
| O=C(Nc1cc2ccccc2cc1C(=O)N1CCC(S(=O)(=O)c2ccccc2)C1)C(c1cccc2ccccc12)P(=O)(O)O (centres unmarked) [Cpd 103] | 3.63 µM |
| O=C(Nc1cc2ccccc2cc1C(=O)N1CCC2(CC1)C(=O)NCN2c1ccccc1)C(c1cccc2ccccc12)P(=O)(O)O (centres unmarked) [Cpd 104] | 3.88 ± 2.41 µM |
| O=C(Nc1ccc2ccccc2c1)OCc1cc2ccccc2cc1NC(=O)C(c1cccc2ccccc12)P(=O)(O)O (centres unmarked) [Cpd 105] | 4.1 µM |
| O=C(Nc1ccc2c(c1)Cc1ccccc1-2)C(c1cccc2ccccc12)P(=O)(O)O (centres unmarked) [Cpd 106] | 4.3 µM |
| O=C(Nc1cc2ccccc2cc1CNCc1ccccc1)C(c1cccc2ccccc12)P(=O)(O)O (centres unmarked) [Cpd 107] | 4.3 ± 0.03 µM |
| O=C(C=Cc1cc2ccccc2cc1NC(=O)C(c1cccc2ccccc12)P(=O)(O)O)NCc1ccccc1 (centres unmarked) [Cpd 109, {[3-(2-Benzylcarbamoyl-vinyl)-naphthalen-2-ylcarbamoyl]-naphthalen-1-yl-methyl}-phosphonic acid] | 4.4 µM |

| SMILES | IC50 |
| --- | --- |
| O=C(Nc1cc2ccccc2cc1NCCCCCc1ccccc1)C(c1cccc2ccccc12)P(=O)(O)O (centres unmarked) [Cpd 110] | 4.45 µM |
| CN(Cc1ccccc1)C(=O)c1cc2ccccc2cc1NC(=O)C(c1cccc2ccccc12)P(=O)(O)O (centres unmarked) [Cpd 111] | 4.62 µM |
| CN(CCCC1c2ccccc2C=Cc2ccccc21)Cc1cc2ccccc2cc1NC(=O)C(c1cccc2ccccc12)P(=O)(O)O (centres unmarked) [Cpd 112] | 4.74 ± 1.65 µM |
| O=C(Nc1cc2ccccc2cc1C(=O)N1CCC(c2nc3ccccc3s2)CC1)C(c1cccc2ccccc12)P(=O)(O)O (centres unmarked) [Cpd 113] | 4.8 ± 1.69 µM |
| O=C(Nc1ccc2ccccc2c1OCC(=O)N1CCC(c2ccccc2)CC1)C(c1cccc2ccccc12)P(=O)(O)O (centres unmarked) [Cpd 114, (Naphthalen-1-yl-{1-[2-oxo-2-(4-phenyl-piperidin-1-yl)-ethoxy]-naphthalen-2-ylcarbamoyl}-5 methyl)-phosphonic acid] | 4.9 ± 1.34 µM |
| COc1ccc(CCN(C)C(=O)c2cc3ccccc3cc2NC(=O)C(c2cccc3ccccc23)P(=O)(O)O)cc1OC (centres unmarked) [Cpd 115] | 5.36 µM |
| Cn1cc(C(C(=O)Nc2ccc3ccccc3c2)P(=O)(O)O)c2cccnc21 (centres unmarked) [Cpd 116] | 5.4 µM |
| CP(=O)(O)C(C(=O)Nc1ccc2ccccc2c1)c1c(C(=O)O)sc2ccccc12 (centres unmarked) [Cpd 118] | 5.72 ± 0.013 µM |
| O=C(NCc1ccccc1)c1cc2ccccc2cc1NC(=O)C(c1cccc2ccccc12)P(=O)(O)O (centres unmarked) [Cpd 119, [(3-Benzylcarbamoyl-naphthalen-2-ylcarbamoyl)-naphthalen-1-yl-methyl]-phosphonic acid] | 5.8 µM |
| NS(=O)(=O)OCC(C(=O)Nc1ccc2ccccc2c1)c1csc2ccc(Cl)cc12 (centres unmarked) [Cpd 120, Sulfamic acid 2-(5-chloro-benzo[b]thiophen-3-yl)-2-(naphthalen-2-ylcarbamoyl)-ethyl ester] | 5.86 ± 1.08 µM |
| O=C(Nc1cc2ccccc2cc1OCC=Cc1ccccc1)C(c1cccc2ccccc12)P(=O)(O)O (centres unmarked) [Cpd 121] | 5.9 µM |
| O=C(Nc1cc2ccccc2cc1OCc1ccccc1)C(c1cccc2ccccc12)P(=O)(O)O (centres unmarked) [Cpd 122, [(3-Benzyloxy-naphthalen-2-ylcarbamoyl)-naphthalen-1-yl-methyl]-phosphonic acid] | 5.94 ± 1.69 µM |
| COC(=O)COc1cc2ccccc2cc1NC(=O)C(c1cccc2ccccc12)P(=O)(O)O (centres unmarked) [Cpd 123] | 6.6 µM |
| O=C(Nc1cc2ccccc2cc1CNC1CCCC1)C(c1cccc2ccccc12)P(=O)(O)O (centres unmarked) [Cpd 124] | 6.7 µM |
| CN(CCc1ccccc1)Cc1cc2ccccc2cc1NC(=O)C(c1cccc2ccccc12)P(=O)(O)O (centres unmarked) [Cpd 126] | 7 µM |
| CP(=O)(O)C(C(=O)Nc1ccc2ccccc2c1)c1c(C(=O)NCc2ccccc2)sc2ccccc12 (centres unmarked) [Cpd 127] | 7 ± 1.1 µM |
| O=C(Nc1ccc2ccccc2c1)C(c1cccc2c1ccn2-c1ccccc1)P(=O)(O)O (centres unmarked) [Cpd 128] | 7.3 µM |
| O=C(Nc1ccc2[nH]ccc2c1)C(c1cccc2ccccc12)P(=O)(O)O (centres unmarked) [Cpd 129] | 7.4 µM |
| O=C(COc1cc2ccccc2cc1NC(=O)C(c1cccc2ccccc12)P(=O)(O)O)NCCCc1ccccc1 (centres unmarked) [Cpd 130] | 7.44 ± 3.73 µM |

| SMILES | IC50 |
| --- | --- |
| O=C(Nc1cc2ccccc2cc1C(=O)N1CCCC1c1ccccc1)C(c1cccc2ccccc12)P(=O)(O)O (centres unmarked) [Cpd 131] | 7.68 µM |
| Nc1cc2ccccc2cc1NC(=O)C(c1cccc2ccccc12)P(=O)(O)O (centres unmarked) [Cpd 132] | 7.9 µM |
| O=C(Nc1cc2ccccc2cc1CNCCCCCO)C(c1cccc2ccccc12)P(=O)(O)O (centres unmarked) [Cpd 133] | 8.08 ± 3.15 µM |
| COC(=O)COc1c(NC(=O)C(c2cccc3ccccc23)P(=O)(O)O)ccc2ccccc12 (centres unmarked) [Cpd 134, [2-(2-Naphthalen-1-yl-2-phosphono-acetylamino)-naphthalen-1-yloxy]-acetic acid methyl ester] | 8.11 ± 4.75 µM |
| O=C(Nc1ccc2ccccc2c1)C(CO)c1csc2ccc(Cl)cc12 (centres unmarked) [Cpd 136, 2-(5-Chloro-benzo[b]thiophen-3-yl)-3-hydroxy-N-naphthalen-2-yl-propionamide] | 8.63 ± 0.81 µM |
| O=C(Nc1cc2ccccc2cn1)C(c1cccc2ccccc12)P(=O)(O)O (centres unmarked) [Cpd 137] | 8.66 µM |
| O=C(Nc1cccc(Oc2ccccc2)c1)C(c1cccc2ccccc12)P(=O)(O)O (centres unmarked) [Cpd 138] | 8.7 µM |
| CC(C)OC(=O)c1cc2ccccc2cc1NC(=O)C(c1cccc2ccccc12)P(=O)(O)O (centres unmarked) [Cpd 139] | 8.8 µM |
| O=C(Nc1ccc2ccccc2c1)C(c1cc2ccccc2s1)P(=O)(O)O (centres unmarked) [Cpd 140, [(Benzo[b]thiophen-2-yl)-(naphthalen-2-ylcarbamoyl)-methyl]-phosphonic acid] | 9.2 ± 0.73 µM |
| O=C(Nc1cc2ccccc2cc1NC(=O)C(c1cccc2ccccc12)P(=O)(O)O)C1CCN(C(=O)c2ccc3ccccc3c2)CC1 (centres unmarked) [Cpd 141, [(3-{[1-(Naphthalene-2-carbonyl)-piperidine-4-carbonyl]-amino}-naphthalen-2-ylcarbamoyl)-naphthalen-1-yl-methyl]-phosphonic acid] | 9.5 µM |
| CN(Cc1ccccc1)Cc1cc2ccccc2cc1NC(=O)C(c1cccc2ccccc12)P(=O)(O)O (centres unmarked) [Cpd 142] | 9.54 ± 4.2 µM |
| COc1ccccc1/C=C/NC(=O)C(c1csc2ccc(Cl)cc12)P(C)(=O)O (centres unmarked) [Cpd 145] | 0.035 ± 0.02 µM |
| CP(=O)(O)C(C(=O)Nc1cc2ccccc2o1)c1csc2ccc(Cl)cc12 (centres unmarked) [Cpd 146] | 0.11 µM |
| CP(=O)(O)C(C(=O)NC=Cc1ccccc1[N+](=O)[O-])c1csc2ccc(Cl)cc12 (centres unmarked) [Cpd 147] | 1.44 ± 0.48 µM |
| CC(=O)Oc1ccccc1/C=C/NC(=O)C(c1csc2ccc(Cl)cc12)P(C)(=O)O (centres unmarked) [Cpd 148] | 0.23 ± 0.04 µM |
| CP(=O)(O)C(C(=O)N/C=C/c1ccccc1O)c1csc2ccc(Cl)cc12 (centres unmarked) [Cpd 149, {(5-Chloro-benzo[b]thiophen-3-yl)-[2-(2-hydroxy-phenyl)-vinylcarbamoyl]-methyl}-methyl-phosphinic acid] | 0.043 µM |
| CP(=O)(O)C(C(=O)N/C=C/c1ccccn1)c1csc2ccc(Cl)cc12 (centres unmarked) [Cpd 150] | 0.091 ± 0.02 µM |
| CP(=O)(O)C(C(=O)NC=Cc1ccccc1N)c1csc2ccc(Cl)cc12 (centres unmarked) [Cpd 151, [[2-(2-Amino-phenyl)-vinylcarbamoyl]-(5-chloro-benzo[b]thiophen-3-yl)-methyl]-methyl-phosphinic acid] | 0.4 ± 0.12 µM |

From patent US7459444B2, “Inhibitors of chymase” (Janssen Pharmaceutica N.V., priority 2004, dated 2008)
